Nine compounds from patent US4673668A, “Aminonaphthacene derivatives” (Sumitomo Pharmaceuticals Company, priority 1982, dated 1987) can be followed below.

Series [1] concerns P388 mouse leukemia cells. Description: Effect against P388 mouse leukemia cell (in vitro test). It is filed as cell-based. The procedure:
(1) Effect against P388 mouse leukemia cell (in vitro test)
P388 leukemia cells have been subcultured in abdominal cavity of DBA/2 mouse. […] A suspension of 5×10^4 cells/ml containing a test compound is prepared and is cultured in a wet atmosphere containing 5% CO2 at 37° C. for 48 hours.
Number of cells before and after culturing is counted by coulter counter. Proliferative ratio is defined as ratio of the increase in cells after proliferation for 48 hours to an increase in cells cultured in a suspension containing no test compound. Inhibition ratio (IR) is defined as follows: […]
1--(proliferative ratio).
In other words, [formula] where C^treated : number of cells after culturing for 48 hours in the presence of a treated compound
C^non : number of cells after culturing for 48 hours in the absence of a test compound
Co : number of cells when culturing is initiated.

In series [2] the test system is P388 mouse leukemia cells. Description: Effect against survival time of mouse transplanted with P388 mouse leukemia cells (in vivo test, intraperitoneal administration). On the set-up: species or system mouse (CDF1). As to conditions: intraperitoneally, first and fifth days. An excerpt:
(2) Effect against survival time of mouse transplanted with P388 mouse leukemia cells (in vivo test, intraperitoneal administration)
(§1) Tumor: P388 mouse leukemia.
(§2) Animals: CDF1 (BALB/C×DBA/2) mouse .male.5 weeks breeding, one group: 6 mice.
(§3) Number of cells transplanted: 10^6 /mouse, intraperitoneal administration.
Dosage: Test compound administered twice, i.e. the first and fifth days, intraperitoneally. Test compound hardly soluble or insoluble in water is applied in a solution or a suspension form by use of Tween 80.
(§4) Evaluation: Increase life span (ILS) is calculated on the basis of median survival times (T) and (C) of treated groups and controls, repsctively: [formula] (3) Effect against survival times of mouse transplanted with P388 mouse leukemia cells (in vivo test; intravenous or per os administration)

For series [3], the system named is P388 mouse leukemia cells. Description: Effect against survival times of mouse transplanted with P388 mouse leukemia cells (in vivo test; intravenous). On the set-up: species or system mouse (CDF1). Conditions: once, first day. The procedure:
as §1, §2, §3, §4
(§5) Similar to (2), but a test compound administered once, i.e., only the first day, intravenously or orally.

The subject of series [4] is P388 mouse leukemia cells. Description: Effect against survival times of mouse transplanted with P388 mouse leukemia cells (in vivo test; per os administration). Details: species or system mouse (CDF1). As to conditions: po, once, first day. The protocol: as §1, §2, §3, §4, §5
Series [5] can be described thus: Toxicity test (maximum tolerated dose). Conditions: mouse, in vivo; single application; BALB/C mice, ten a group; largest amount where no death is seen. An excerpt: The largest amount where no death of mice is seen is defined as maximum tolerated dose.
[6] abbreviates: P388, 1 γ/ml, 48 hours, read-out: Inhibition ratio (IR).
The mark [7] stands for this setting: P388, 10^-1 γ/ml, 48 hours, read-out: Inhibition ratio (IR).
[8] abbreviates: P388, 10 γ/ml, 48 hours, read-out: Inhibition ratio (IR).
Setting [9] is: P388, 48 h, read-out: Inhibition ratio (IR), 1 γ/ml.
Setting [10] is: P388, 48 h, read-out: Inhibition ratio (IR), 10^-1 γ/ml.
Setting [11] is: P388, 48 h, read-out: Inhibition ratio (IR), 10 γ/ml.

Where “and” joins values, the source holds several entries; their conditions need not be identical. Identical values can stand only once. Counter-ions that a name gives are not always drawn. Like-named read-outs stand apart in the source and are kept apart here.

In general, MTD refers to the highest dose tested that stayed within the study's limit of toxicity. A higher MTD goes with a wide tolerated range. Turning to `CC(=O)O[C@H]1C[C@H](O[C@H]2C[C@](N)(C(C)=O)Cc3c(O)c4c(c(O)c32)C(=O)c2ccccc2C4=O)OC[C@H]1OC(C)=O` [11 (hydrochloride), d-7α-[(2-deoxy-3,4-di-0-acetyl-β-D-erythro-pentapyranosyl)oxy]-9α-amino-9β-acetyl-7,8,9,10-tetrahydro-6,11-dihydroxy-5,12-naphthacenedione], the inhibition at 1 µg/mL in series [1] (setting [6]) was 97.9%. The inhibition at 0.1 µg/mL in series [1] (setting [7]) was determined as 1.9%. Moreover, the inhibition at 10 µg/mL in series [1] (setting [8]) is 100%. For the same compound, the entries for the “Increase life span (ILS)” value in series [2] (6.25 mg/kg), in series [2] (12.5 mg/kg) and in series [2] (25 mg/kg) were 37%, 123% and 280%, respectively. In addition, the ILS in series [3] (10 mg/kg) is 35%; in series [3] (20 mg/kg) it was 67%; in series [3] (40 mg/kg), -45%; in series [4] (17.5 mg/kg), 40%; in series [4] (35 mg/kg) it was 63%; in series [4] (70 mg/kg), -42%. Moreover, the “Toxic Death” value in series [3] (40 mg/kg) and in series [4] (70 mg/kg) was 6/6 throughout. This compound also registered an MTD in series [5] of 40 mg/kg.
Regarding `CC(=O)[C@]1(N)Cc2c(O)c3c(c(O)c2[C@@H](O[C@H]2C[C@H](O)[C@H](O)CO2)C1)C(=O)c1ccccc1C3=O` [12 (hydrochloride), d-7α-[(2-deoxy-β-D-erythro-pentapyranosyl)oxy]-9αamino-9β-acetyl-7,8,9,10-tetrahydro-6,11-dihydroxy-5,12-naphthacenedione], the inhibition at 1 µg/mL in series [1] (setting [9]) was found to be 83.8%. Besides, the inhibition at 0.1 µg/mL in series [1] (setting [10]) was determined as 27.5%. For the same compound, the inhibition at 10 µg/mL in series [1] (setting [11]) turned out to be 85%. Besides, the ILS in series [3] (10 mg/kg) is recorded as 32%; in series [3] (20 mg/kg), 60%; in series [3] (40 mg/kg) it was -43%; in series [4] (17.5 mg/kg) it was 31%; in series [4] (35 mg/kg), 50%; in series [4] (70 mg/kg), 86%. Also, the “Toxic Death” value in series [3] (40 mg/kg) is recorded as 6/6. In series [5], the MTD is 32 mg/kg.
`CC(=O)[C@]1(N)Cc2c(O)c3c(c(O)c2[C@@H](O[C@H]2C[C@H](O)[C@H](O)[C@H](C)O2)C1)C(=O)c1ccccc1C3=O` [Example 2, d-7α-[(2,6-dideoxy-α-L-lyxo-lexopyranosyl)oxy]-9α-amino-9β-acetyl-7,8,9,10-tetrahydro-6,11-dihydroxy-5,12-naphthacenedione]: the inhibition at 1 µg/mL in series [1] (setting [6]) stood at 84.5%. For the same compound, the inhibition at 0.1 µg/mL in series [1] (setting [7]) was 44.1%. Besides, the inhibition at 10 µg/mL in series [1] (setting [8]) came out at 89.9%. Further, the “Increase life span (ILS)” value in series [2] (6.25 mg/kg) came to 135%.
On to `CC[C@@]1(O)C[C@H](O[C@H]2C[C@H](N(C)C)[C@H](O[C@H]3C[C@H](O)[C@H](O[C@H]4CCC(=O)[C@H](C)O4)[C@H](C)O3)[C@H](C)O2)c2c(cc3c(c2O)C(=O)c2c(O)cccc2C3=O)[C@H]1C(=O)OC` [ACM-A, AclacinomycinA, reference compound], for which the ILS turned out to be 11% in series [4] (10.7 mg/kg), 25% in series [4] (21.5 mg/kg) and 37% in series [4] (43 mg/kg).
For the compound `CC(=O)[C@]1(N)Cc2c(O)c3c(c(O)c2[C@@H](O[C@H]2C[C@H](N)[C@H](O)[C@H](C)O2)C1)C(=O)c1c(O)cccc1C3=O` [Example 25 (dihydrochloride), d-7α-[(2,3,6-trideoxy-3-amino-α-L-lyxo-hexopyranosyl)oxy]-9α-amino-9β-acetyl-4,6,11-trihydroxy-7,8,9,10-tetrahydro-5,12-naphthacenedione], in series [1] (setting [6]), the inhibition at 1 µg/mL amounted to 95.7%. Besides, in series [1] (setting [7]), the inhibition at 0.1 µg/mL was 89%. Also, the inhibition at 10 µg/mL in series [1] (setting [8]) was determined as 99.4%.
With `COc1cccc2c1C(=O)c1c(O)c3c(c(O)c1C2=O)C[C@@](O)(C(=O)CO)C[C@@H]3O[C@H]1C[C@H](N)[C@H](O)[C@H](C)O1` [ADR, Adriamycin, reference compound], the inhibition at 1 µg/mL in series [1] (setting [9]) worked out at 85.9%. The inhibition at 0.1 µg/mL in series [1] (setting [10]) amounted to 85%. Moreover, the inhibition at 0.01 µg/mL in series [1] (P388, 48 h, read-out: Inhibition ratio (IR), 10^-2 γ/ml) came out at 69.2%. In addition, in series [1] (setting [11]), the inhibition at 10 µg/mL is 90.6%. The “Increase life span (ILS)” value in series [2] (1 mg/kg, positive control) is 58% and 78% and 57%; in series [2] (2 mg/kg, positive control) it was 90% and 84%; in series [2] (4 mg/kg, positive control) it was 133%. The figures for the ILS in series [3] (3.75 mg/kg), in series [3] (7.5 mg/kg) and in series [3] (15 mg/kg) were 21%, 47% and 83%, respectively. The MTD in series [5] was found to be 12.5 mg/kg.
For the compound `CC(=O)[C@]1(N)Cc2c(O)c3c(c(O)c2[C@@H](OC2CCCCO2)C1)C(=O)c1ccccc1C3=O` (single isomer, unassigned) [Example 10-A, 7-0-tetrahydropyranyl-9α-amino-9β-acetyl-7,8,9,10-tetrahydro-6,7α,11-trihydroxy-5,12-naphthacenedione], the inhibition at 1 µg/mL in series [1] (setting [6]) worked out at 94.4%. Further, in series [1] (setting [7]), the inhibition at 0.1 µg/mL turned out to be 94.6%. The inhibition at 10 µg/mL in series [1] (setting [8]) worked out at 89%. In addition, the “Increase life span (ILS)” value in series [2] (6.25 mg/kg) is listed as 25%; in series [2] (12.5 mg/kg), 77%; in series [2] (25 mg/kg), 286%.
With `CC(=O)O[C@@H]1[C@H](C)O[C@@H](O[C@H]2C[C@](N)(C(C)=O)Cc3c(O)c4c(c(O)c32)C(=O)c2ccccc2C4=O)C[C@@H]1OC(C)=O` [Example 1, d-7α-[(3,4-di-0-acetyl-2,6-dideoxy-α-L-lyxo-hexopyranosyl)oxy]-9α-amino-9β-acetyl-7,8,9,10-tetrahydro-6,11-dihydroxy-5,12-naphthacenedione], the inhibition at 1 µg/mL in series [1] (setting [6]) is 84.1%. Besides, the inhibition at 0.1 µg/mL in series [1] (setting [7]) is 32.4%. Besides, the inhibition at 10 µg/mL in series [1] (setting [8]) was found to be 82.7%. The “Increase life span (ILS)” value is listed as 42% in series [2] (6.25 mg/kg), 86% in series [2] (12.5 mg/kg) and 152% in series [2] (25 mg/kg).
Turning to `CC(O)[C@]1(N)Cc2c(O)c3c(c(O)c2[C@@H](OC2CCCCO2)C1)C(=O)c1ccccc1C3=O` (stereo partly drawn) [Example 29, 7-0-tetrahydropyranyl-9α-amino-9β-(1-hydroxyethyl)-7,8,9,10-tetrahydro-6,7α,11-trihydroxy-5,12-naphthacenedione], in series [1] (setting [6]), the inhibition at 1 µg/mL was 92.9%. For the same compound, in series [1] (setting [7]), the inhibition at 0.1 µg/mL was determined as 93.5%. For the same compound, in series [1] (P388, 10^-2 γ/ml, 48 hours, read-out: Inhibition ratio (IR)), the inhibition at 0.01 µg/mL amounted to 40.1%. In series [1] (setting [8]), the inhibition at 10 µg/mL came to 94.1%. For the same compound, the results for the “Increase life span (ILS)” value in series [2] (3.13 mg/kg) and in series [2] (6.25 mg/kg) were 66% and 126%, respectively.
